± gives the expanded uncertainty stated by the source.
Assays:
[1] = refractive index (Na D-line) (dimensionless); settings: 101.33 kPa, Liquid, Standard Abbe refractometry
[2] = Liquid; for mass density: 101.33 kPa

Row | SMILES | refractive index ([1]; 298.15 K) | mass density ([2]; 298.15 K) | also measured
1 | N#Cc1cnccn1 [2-cyanopyrazine] | – | – | refractive index ([1]; 293.15 K): 1.534 ± 0.0007; mass density ([2]; 293.15 K): 1174 ± 1.8 kg/m3; vapor or sublimation pressure ([2]; 476.15 K): 95.1 ± 5 kPa
2 | COc1ccccc1 [anisole] | 1.5142 ± 0.0007 | 989.3 ± 1.5 kg/m3 | vapor or sublimation pressure ([2]; 424.45 K): 95.1 ± 5 kPa
3 | CCC(C)=O [butanone] | 1.3769 ± 0.0007 | 799.8 ± 1.2 kg/m3 | vapor or sublimation pressure ([2]; 350.95 K): 95.1 ± 5 kPa
4 | CCCCCCCCCC [decane] | 1.4097 ± 0.0007 | 726.4 ± 1 kg/m3 | vapor or sublimation pressure ([2]; 444.95 K): 95.1 ± 5 kPa
5 | CC(C)OC(C)C [diisopropyl ether] | 1.3654 ± 0.0007 | 718.5 ± 1 kg/m3 | vapor or sublimation pressure ([2]; 339.65 K): 95.1 ± 5 kPa
6 | CN(C)C=O [dimethylformamide] | 1.4282 ± 0.0007 | 943.9 ± 1.4 kg/m3 | vapor or sublimation pressure ([2]; 420.85 K): 95.1 ± 5 kPa; vapor or sublimation pressure ([2]; 420.95 K): 95.1 ± 5 kPa
7 | CCCCCCCC [octane] | – | 698.6 ± 1 kg/m3 | vapor or sublimation pressure ([2]; 391.15 K): 95.1 ± 5 kPa

From the NIST ThermoML archive (doi:10.1016/j.fluid.2007.02.026)
